# Laboratory results as given in patent US11034671B2, “Apoptosis signal-regulating kinase inhibitors and uses thereof” (SICHUAN HAISCO PHARMACEUTICAL CO., LTD., priority 2017, dated 2021).
# Biological target: ASK1 (Homo sapiens (Human), UniProt Q99683)
# Assay: ASK1 KINOMEscan assay (biochemical Kd), competition binding
# Conditions: DNA-tagged ASK1 kinase, 11-point 3-fold dilution
# Procedure: The binding of compounds to ASK1 were determined using DiscoverX's proprietary technology. […] The assay is performed by combining three components: DNA-tagged ASK1 kinase; immobilized ligand; and a test compound. The ability of the test compound to compete with the immobilized ligand is measured via quantitative PCR of the DNA tag. […] The liganded beads were blocked with excess biotin and washed with blocking buffer (SeaBlock (Pierce), 1% BSA, 0.05% Tween 20, 1 mM DTT) to remove unbound ligand and to reduce nonspecific binding. […] Kds were determined using an 11-point 3-fold compound dilution series with three DMSO control points. […] The compounds were then diluted directly into the assays such that the final concentration of DMSO was 0.9%. All reactions were performed in polypropylene 384-well plate. […] The kinase concentration in the eluates was measured by qPCR. Most Kds were determined using a compound top concentration=30,000 nM. […] Binding constants (Kds) were calculated with a standard dose-response curve using the Hill equation: Response=Background+{(Signal−Background)/[1+(Kd^Hill Slope/Dose^Hill Slope)]}, the Hill Slope was set to −1, and curves were fitted using a non-linear least square fit with the Levenberg-Marquardt algorithm.
# Chain of ASK1 (Q99683 whole entry): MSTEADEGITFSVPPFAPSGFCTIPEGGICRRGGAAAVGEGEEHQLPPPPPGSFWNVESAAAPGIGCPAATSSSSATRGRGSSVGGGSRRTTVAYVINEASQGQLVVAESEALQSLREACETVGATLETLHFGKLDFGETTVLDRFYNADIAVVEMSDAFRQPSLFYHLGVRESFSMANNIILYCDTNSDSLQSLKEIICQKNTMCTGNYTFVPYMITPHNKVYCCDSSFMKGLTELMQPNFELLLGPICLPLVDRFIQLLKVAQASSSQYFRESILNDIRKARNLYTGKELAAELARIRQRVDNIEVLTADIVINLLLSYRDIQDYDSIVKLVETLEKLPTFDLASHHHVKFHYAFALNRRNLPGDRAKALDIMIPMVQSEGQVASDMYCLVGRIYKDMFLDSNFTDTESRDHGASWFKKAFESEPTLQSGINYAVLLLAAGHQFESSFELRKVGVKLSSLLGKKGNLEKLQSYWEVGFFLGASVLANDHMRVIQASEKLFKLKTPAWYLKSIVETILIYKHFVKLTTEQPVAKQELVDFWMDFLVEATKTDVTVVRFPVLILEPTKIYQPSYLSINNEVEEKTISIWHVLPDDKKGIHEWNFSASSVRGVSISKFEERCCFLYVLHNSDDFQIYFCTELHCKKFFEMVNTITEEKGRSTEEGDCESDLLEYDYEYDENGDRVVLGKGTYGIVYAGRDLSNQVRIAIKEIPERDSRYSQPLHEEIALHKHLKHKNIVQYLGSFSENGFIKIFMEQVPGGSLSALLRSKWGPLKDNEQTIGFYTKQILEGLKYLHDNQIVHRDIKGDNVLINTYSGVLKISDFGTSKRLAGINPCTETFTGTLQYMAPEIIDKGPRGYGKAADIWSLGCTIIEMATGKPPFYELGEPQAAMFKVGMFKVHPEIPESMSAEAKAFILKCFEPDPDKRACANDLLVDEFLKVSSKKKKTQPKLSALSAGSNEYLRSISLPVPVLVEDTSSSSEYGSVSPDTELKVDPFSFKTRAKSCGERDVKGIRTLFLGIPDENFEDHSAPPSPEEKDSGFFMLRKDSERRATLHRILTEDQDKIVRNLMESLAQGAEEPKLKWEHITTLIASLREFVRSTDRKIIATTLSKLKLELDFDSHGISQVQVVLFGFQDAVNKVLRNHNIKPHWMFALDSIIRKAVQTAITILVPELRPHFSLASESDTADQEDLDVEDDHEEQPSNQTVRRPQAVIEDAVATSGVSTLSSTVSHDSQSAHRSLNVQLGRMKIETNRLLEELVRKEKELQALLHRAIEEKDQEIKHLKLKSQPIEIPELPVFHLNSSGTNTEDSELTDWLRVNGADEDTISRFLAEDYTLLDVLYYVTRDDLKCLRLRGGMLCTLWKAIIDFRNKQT
row,Structure (SMILES),Kd
1,Cc1ccc(-c2ccc3c(c2)C(=O)Nc2cccc(n2)-c2nncn2C2C[C@H]2CCO3)cn1 (stereo in doubt) [Example 97],< 10 nM
2,COc1ccc2c(c1)C(=O)Nc1cccc(n1)-c1nncn1CC/C=C/CO2 [Example 1],< 10 nM
3,COc1ccc2c(c1)C(=O)Nc1cccc(n1)-c1nncn1CCCCCO2 [Example 2],< 10 nM
4,COc1ccc2c(c1)C(=O)Nc1cccc(n1)-c1nncn1CCC/C=C/CO2 [Example 3],10 to 100 nM
5,COc1ccc2c(c1)C(=O)Nc1cccc(n1)-c1nncn1CC/C=C/C2 [Example 4],> 1000 nM
6,COc1ccc2c(c1)C(=O)Nc1cccc(n1)-c1nncn1CCCCC2 [Example 5],100 to 1000 nM
7,COc1ccc2c(c1)C(=O)Nc1cccc(n1)-c1nncn1CC=CCO2 [Example 6],10 to 100 nM
8,COc1ccc2c(c1)C(=O)Nc1cccc(n1)-c1nncn1CCCCO2 [Example 7],< 10 nM
9,O=C1Nc2cccc(n2)-c2nncn2CCCCCc2ccc(-c3ccc(C4CC4)nc3)cc21 [Example 8],10 to 100 nM
10,O=C1Nc2cccc(n2)-c2nncn2CCCCCCOc2ccc(-c3ccc(C4CC4)nc3)cc21 [Example 9],100 to 1000 nM
11,O=C1Nc2cccc(n2)-c2nncn2CC=CCCOc2ccc(Br)cc21 [Example 10],< 10 nM
12,COc1ccc2c(c1)C(=O)Nc1cccc(n1)-c1nncn1CCCCCCO2 [Example 11],< 10 nM
13,O=C1Nc2cccc(n2)-c2nncn2CC=CCCCOc2ccc(Br)cc21 [Example 12],10 to 100 nM
14,O=C1Nc2cccc(n2)-c2nncn2CC=CCCCOc2ccc(-c3ccc(C4CC4)nc3)cc21 [Example 13],> 1000 nM
15,O=C1Nc2cccc(n2)-c2nncn2CC=CCCOc2ccc(-c3ccc(C4CC4)nc3)cc21 [Example 14],10 to 100 nM
16,O=C1Nc2cccc(n2)-c2nncn2C/C=C\COc2ccc(Br)cc21 [Example 16],10 to 100 nM
17,O=C1Nc2cccc(n2)-c2nncn2C/C=C/CCOc2ccc(OCc3ccccc3)cc21 [Example 17],10 to 100 nM
18,O=C1Nc2cccc(n2)-c2nncn2C/C=C/COc2ccc(OCc3ccccc3)cc21 [Example 18],< 10 nM
19,O=C1Nc2cccc(n2)-c2nncn2CCCCOc2ccc(OC3CCOC3)cc21 (stereo not shown) [Example 20],10 to 100 nM
20,O=C1Nc2cccc(c2)-c2nncn2CCCOc2ccc(-c3ccc(C4CC4)nc3)cc21 [Example 21],> 1000 nM
21,O=C1Nc2cccc(n2)-c2nncn2CCCCOc2cc(F)c(F)cc21 [Example 25],100 to 1000 nM
22,O=C1Nc2cccc(n2)-c2nncn2CCCCOc2cc(F)c(Br)cc21 [Example 28],100 to 1000 nM
23,COc1cc2c(cc1OC)C(=O)Nc1cccc(n1)-c1nncn1CCCCO2 [Example 29],100 to 1000 nM
24,N#Cc1ccc2c(c1)C(=O)Nc1cccc(n1)-c1nncn1CCCCO2 [Example 31],< 10 nM
25,O=C1Nc2cccc(n2)-c2nncn2CCCCOc2ccc(C(F)(F)F)cc21 [Example 32],10 to 100 nM

row,Structure (SMILES),Kd
1,O=C1Nc2cccc(n2)-c2nncn2CCCOc2ccc(Br)cc21 [Example 33],100 to 1000 nM
2,O=C1Nc2cccc(n2)-c2nncn2CCCCOc2ccc(Cl)cc21 [Example 41],10 to 100 nM
3,N#Cc1cc2c(cc1F)OCCCCn1cnnc1-c1cccc(n1)NC2=O [Example 44],10 to 100 nM
4,CC(C)n1nccc1-c1ccc2c(c1)C(=O)Nc1cccc(n1)-c1nncn1CCCCO2 [Example 45],100 to 1000 nM
5,Cc1ccc(-c2cc3c(cc2C)OCCCCn2cnnc2-c2cccc(n2)NC3=O)cn1 [Example 51],< 10 nM
6,CC(C)(O)c1ccc2c(c1)OCCCCn1cnnc1-c1cccc(n1)NC2=O [Example 53],< 10 nM
7,Cn1ncc2cc(-c3ccc4c(c3)C(=O)Nc3cccc(n3)-c3nncn3CCCCO4)ccc21 [Example 55],< 10 nM
8,O=C1Nc2cccc(n2)-c2nncn2CCCOc2ccc(-c3ccccc3)cc21 [Example 57],10 to 100 nM
9,O=C1Nc2cccc(n2)-c2nncn2CCCCOc2ccc(-c3ccc4nccn4c3)cc21 [Example 58],< 10 nM
10,COc1cc2c(cc1Br)OCCCCn1cnnc1-c1cccc(n1)NC2=O [Example 59],100 to 1000 nM
11,Cc1ccc(-c2ccc3c(c2)C(=O)Nc2cccc(n2)-c2nncn2CCCO3)cn1 [Example 60],< 10 nM
12,Cc1ccc(-c2cc3c(cc2F)OCCCCn2cnnc2-c2cccc(n2)NC3=O)cn1 [Example 64],100 to 1000 nM
13,Cc1cc2c(cc1-c1ccc(C3CC3)nc1)C(=O)Nc1cccc(n1)-c1nncn1CCCCO2 [Example 65],< 10 nM
14,O=C1Nc2cccc(n2)-c2nncn2CCCCOc2cc(F)c(-c3ccc(C4CC4)nc3)cc21 [Example 68],< 10 nM
15,Cc1ccc(-c2ccc3c(c2)C(=O)Nc2cccc(n2)-c2nncn2[C@H]2C[C@@H](CO3)C2)cn1 [Example 69],< 10 nM
16,Cc1ccc(-c2ccc3c(c2)C(=O)Nc2cccc(n2)-c2nncn2[C@H]2CC[C@H](CC2)O3)cn1 [Example 71],< 10 nM
17,Cc1ccc(-c2ccc3c(c2)C(=O)Nc2cccc(n2)-c2nncn2CCO3)cn1 [Example 72],> 1000 nM
18,Cc1ncc(-c2ccc3c(c2)C(=O)Nc2cccc(n2)-c2nncn2CCCCO3)cn1 [Example 73],< 10 nM
19,Cc1ncc(-c2ccc3c(c2)C(=O)Nc2cccc(n2)-c2nncn2CCCCO3)cc1Cl [Example 75],10 to 100 nM
20,Cc1ccc(-c2ccc3c(c2)C(=O)Nc2cccc(n2)-c2nncn2C[C@H]2CC2CO3)cn1 (stereo partly shown) [Example 77],< 10 nM
21,CC(F)(F)c1ccc(-c2ccc3c(c2)C(=O)Nc2cccc(n2)-c2nncn2CCCCO3)cn1 [Example 78],< 10 nM
22,O=C1Nc2cccc(n2)-c2nncn2CCCOc2ccc(-c3ccc(C(F)F)nc3)cc21 [Example 79],10 to 100 nM
23,Cc1ccc(-c2ccc3c(c2)C(=O)Nc2cccc(n2)-c2nncn2CC(C)CCO3)cn1 (stereo not shown) [Example 80],< 10 nM
24,Cc1ccc(-c2ccc3c(c2)C(=O)Nc2cccc(n2)-c2nncn2C[C@@H]2CC2CO3)cn1 (stereo partly shown) [Example 81],< 10 nM
25,O=C1Nc2cccc(n2)-c2nncn2CCCOCc2ccc(-c3ccc(C(F)F)nc3)cc21 [Example 82],< 10 nM

row,Structure (SMILES),Kd
1,CC1CCOc2ccc(-c3ccc(C(F)F)nc3)cc2C(=O)Nc2cccc(n2)-c2nncn21 (stereo not shown) [Example 83],> 1000 nM
2,O=C1Nc2cccc(n2)-c2nncn2[C@H]2CC[C@H](CC2)Oc2ccc(-c3ccc(C(F)F)nc3)cc21 [Example 84],< 10 nM
3,O=C1Nc2cccc(n2)-c2nncn2[C@H]2CCC(C2)Oc2ccc(-c3ccc(C(F)F)nc3)cc21 [Example 86],< 10 nM
4,O=C1Nc2cccc(n2)-c2nncn2CCCCOc2ccc(-c3ccc(CF)nc3)cc21 [Example 87],< 10 nM
5,Cc1ccc(-c2ccc3c(c2)C(=O)Nc2cccc(n2)-c2nncn2[C@@H](C)CCCO3)cn1 [Example 88],< 10 nM
6,Cc1ccc(-c2ccc3c(c2)C(=O)Nc2cccc(n2)-c2nncn2[C@H](C)CCCO3)cn1 [Example 89],< 10 nM
7,O=C1Nc2cccc(n2)-c2nncn2CCCOc2ccc(-c3ccc(C(F)F)nc3)cc21 [Example 90],> 1000 nM
8,Cc1ccc(-c2ccc3c(c2)C(=O)Nc2cccc(n2)-c2nncn2CCCS3)cn1 [Example 91],> 1000 nM
9,O=C1Nc2cccc(n2)-c2nncn2C2CC(C2)Oc2ccc(-c3ccc(C(F)F)nc3)cc21 [Example 93],100 to 1000 nM
10,COc1ccc2c(c1)C(=O)Nc1cccc(n1)-c1nncn1CC=CC2 [Example 94],> 1000 nM
11,O=C1Nc2cccc(n2)-c2nncn2CCCOCc2ccc(-c3ccc(C4CC4)nc3)cc21 [Example 95],< 10 nM
12,N#Cc1ccc2c(c1)OCCCCn1cnnc1-c1cccc(n1)NC2=O [Example 96],10 to 100 nM
13,O=C1Nc2cccc(n2)-c2nncn2CCCCOc2ccc(-c3cnc(F)c(F)c3)cc21 [Example 98],< 10 nM
14,O=C1Nc2cccc(n2)-c2nncn2CCCCOc2ccc(-c3cnc(F)c(Cl)c3)cc21 [Example 99],< 10 nM
15,O=C1Nc2cccc(n2)-c2nncn2CCCOCc2ccc(-c3ccc(CF)nc3)cc21 [Example 100],< 10 nM
16,O=C1Nc2cccc(n2)-c2nncn2CCCOCc2ccc(-c3ccc(C(F)(F)F)nc3)cc21 [Example 101],10 to 100 nM
17,CCc1ccc(-c2ccc3c(c2)C(=O)Nc2cccc(n2)-c2nncn2CCCOC3)cn1 [Example 102],< 10 nM
18,O=C1Nc2cccc(n2)-c2nncn2CCCOCc2ccc(-n3cnc(C4CC4)c3)cc21 [Example 103],< 10 nM
19,Cc1ccc(-c2ccc3c(c2)C(=O)Nc2cccc(n2)-c2nncn2CC[C@@H](C)CO3)cn1 [Example 104],< 10 nM
20,O=C1Nc2cccc(n2)-c2nncn2CCCOCc2ccc(-c3cnc(F)c(Cl)c3)cc21 [Example 106],10 to 100 nM
21,O=C1Nc2cccc(n2)-c2nncn2CCCOCc2ccc(-c3cnc(F)c(F)c3)cc21 [Example 107],10 to 100 nM
22,Cc1c(F)c(F)cc2c1C(=O)Nc1cccc(n1)-c1nncn1CCCCO2 [compound 26],100 to 1000 nM
23,CCc1ccc(-c2ccc3c(c2)C(=O)Nc2cccc(n2)-c2nncn2CCCS3)cn1 [compound 92],< 10 nM
